The subject of this assay is HIV replication. Description: Inhibition of acute HIV infection with HeLa P4-2 cells, single cycle infectivity ("vertical") assay. The format is cell-based. The conditions noted are these: Human immunodeficiency virus 1, HeLaP4-2. An excerpt: The inhibitory activity of the compounds of the present invention may be measured by assays known in the art. […] Preferred compounds have IC50 values of ≦1 micromolar in this integrase assay. […] 1992, 66, 2232 for measuring the inhibition of acute HIV infection with HeLa P4-2 cells in a single cycle infectivity assay.
An assay for measuring the inhibition of acute HIV infection with HeLa P4-2 cells in a single cycle infectivity assay (alternatively referred to as the “vertical” assay) was conducted in accordance with Joyce, J. G., et al., J. Biol. Chem., 2002, 277, 45811, Hazuda, D. J. et al., Science, 2000, 287, 646, and Kimpton, J. et al, J. Virol. 1992, 66, 2232.

Broadly, the IC50 is the concentration that inhibits the measured activity by half. The low end stands for greater potency in that assay, the high end for weaker potency in that assay.

For `CN1CCn2cc(-c3nnc(Cc4ccc(F)cc4)s3)c(O)c2C1=O` [Example 1, 7-[5-(4-Fluorobenzyl)-1,3,4-thiadiazol-2-yl]-8-hydroxy-2-methyl-3,4-dihydropyrrolo[1,2-a]pyrazin-1(2H)-one], the IC50 is below 35 µM.

`CN1CCn2cc(-c3nnc(Cc4ccc(F)cc4)o3)c(O)c2C1=O` [Example 2, 7-[5-(4-Fluorobenzyl)-1,3,4-oxadiazol-2-yl]-8-hydroxy-2-methyl-3,4-dihydropyrrolo[1,2-a]pyrazin-1(2H)-one] yielded an IC50 below 35 µM. Molecule `CN1CCn2cc(-c3nnc(Cc4ccc(F)cc4)[nH]3)c(O)c2C1=O` [Example 3] had an IC50 below 35 µM.

On to `CN1C[C@H](c2ccccc2)n2nc(-c3nnc(Cc4ccc(F)cc4)s3)c(O)c2C1=O` [Example 4, (7S)-2-[5-(4-Fluorobenzyl)-1,3,4-thiadiazol-2-yl]-3-hydroxy-5-methyl-7-phenyl-6,7-dihydropyrazolo[1,5a]pyrazin-4(5H)-one], for which the IC50 is below 35 µM. On to `CN1C[C@H](c2ccccc2)n2nc(-c3nnc(Cc4ccc(F)cc4)o3)c(O)c2C1=O` [Example 5, (7S)-2-[5-(4-Fluorobenzyl)-1,3,4-oxadiazol-2-yl]-3-hydroxy-5-methyl-7-phenyl-6,7-dihydropyrazolo[1,5a]pyrazin-4(5H)-one], for which the concentration for half-maximal inhibition (IC50) was below 35 µM.

(Values after patent publication US20090312335A1 (priority 2005, published 2009).)
